Like-named read-outs stand apart in the source and are kept apart here.
How the values were obtained:
[1] = molecular target: GDP-bound NRAS wild-type protein (Homo sapiens, UniProt P01111); test: Binding to NRAS by surface plasmon resonance (SPR), Single Cycle Kinetics; conditions: SPR, GDP-bound NRAS wild-type protein vs GDP-bound KRAS wild-type protein
[2] = molecular target: GDP-bound KRAS wild-type protein (Homo sapiens, UniProt P01116); test: Binding to KRAS by surface plasmon resonance (SPR), Single Cycle Kinetics; conditions: SPR, Single Cycle Kinetics, GDP-bound KRAS wild-type protein, read-out: KRAS KD
[3] = system: human lung cancer strain NCI-H441;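 further: cell proliferation inhibition after four days measured by CellTiter-Glo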
[4] = molecular target: GDP-bound HRAS wild-type protein (Homo sapiens, UniProt P01112); test: Binding to HRAS by surface plasmon resonance (SPR), Single Cycle Kinetics; conditions: SPR, GDP-bound HRAS wild-type protein vs GDP-bound KRAS wild-type protein
GDP-bound HRAS wild-type protein, sequence (P01112 whole entry): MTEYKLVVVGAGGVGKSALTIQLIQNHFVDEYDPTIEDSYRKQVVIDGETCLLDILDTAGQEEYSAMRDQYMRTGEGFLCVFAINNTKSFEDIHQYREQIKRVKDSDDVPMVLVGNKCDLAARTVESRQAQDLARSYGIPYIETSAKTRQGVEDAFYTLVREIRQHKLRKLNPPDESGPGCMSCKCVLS

GDP-bound NRAS wild-type protein, sequence (P01111 whole entry): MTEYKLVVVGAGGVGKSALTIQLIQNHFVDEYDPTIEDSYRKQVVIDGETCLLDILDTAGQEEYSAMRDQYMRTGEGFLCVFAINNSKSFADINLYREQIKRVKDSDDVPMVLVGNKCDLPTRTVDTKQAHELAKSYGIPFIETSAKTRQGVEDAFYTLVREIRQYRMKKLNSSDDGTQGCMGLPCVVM
GDP-bound KRAS wild-type protein, sequence (P01116 whole entry): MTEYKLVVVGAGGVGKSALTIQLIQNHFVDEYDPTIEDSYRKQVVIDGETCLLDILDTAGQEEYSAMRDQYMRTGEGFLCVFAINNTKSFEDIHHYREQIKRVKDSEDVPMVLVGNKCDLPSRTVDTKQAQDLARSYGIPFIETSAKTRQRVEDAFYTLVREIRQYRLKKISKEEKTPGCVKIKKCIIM

Compound | Kd [2] [nM] | IC50 [3] [nM] | Kd ([2]; 1:1 binding model) [nM] | NRAS/KRAS (ratio of KD value for NRAS to KD value for KRAS) [1] | HRAS/KRAS (ratio of KD value for HRAS to KD value for KRAS) [4] | NRAS/KRAS (ratio of KD value for NRAS to KD value for KRAS) ([1]; KD ratio class) | HRAS/KRAS (ratio of KD value for HRAS to KD value for KRAS) ([4]; KD ratio class)
CCCOC[C@H]1C(=O)N[C@@H]([C@@H](C)CC)C(=O)N2CCC[C@H]2C(=O)N(C)[C@H]2C/C=C\CCN(C2=O)[C@@H](CC2CCC(F)(F)CC2)C(=O)N(C)CC(=O)N[C@@H](CCc2ccc(C(F)(F)F)c(OC)c2)C(=O)N2C[C@@H](C)C[C@H]2C(=O)N(C)C2(CCC2)C(=O)N(C)[C@@H](C2CCCC2)C(=O)N(C)[C@H](C(=O)N(C)C)CC(=O)N1C [PP2381] | 0.93 | 3.2 |  | A (a compound having 10 or more and less than 20 is denoted as A) | A (a compound having 10 or more and less than 20 is denoted as A) |  | 
CCO[C@@H]1C[C@H]2C(=O)NC3(CCC3)C(=O)N(C)[C@@H](C3CCCC3)C(=O)N(C)[C@H](C(=O)N3CCOCC3)CC(=O)N(C)[C@@H](CC)C(=O)N[C@@H]([C@@H](C)CC)C(=O)N3CC[C@H]3C(=O)N(C)[C@H]3C[C@@H](C)[C@@H](C)CN(C3=O)[C@@H](Cc3ccc(C(F)(F)F)cc3)C(=O)N(C)CC(=O)N[C@@H](CCc3ccc(C(F)(F)F)c(Cl)c3)C(=O)N2C1 [PP1357] |  | 5.4 | 0.13 |  |  | A (a compound having 10 or more and less than 20 is denoted as A) | B (a compound having 3 or more and less than 10 is denoted as B)
CC[C@H](C)[C@@H]1NC(=O)[C@H](CC)N(C)C(=O)C[C@@H](C(=O)N(C)C)N(C)C(=O)[C@H](C2CCCC2)N(C)C(=O)C2(CCC2)NC(=O)[C@@H]2CCCN2C(=O)[C@H](CCc2cc(F)c(C(F)(F)F)c(F)c2)NC(=O)CN(C)C(=O)[C@H](Cc2ccc(C(F)(F)F)cc2)N2CC/C=C\C[C@@H](C2=O)N(C)C(=O)CN(C)C1=O [PP1135, (2S,8S,14S,20S,23S,27S,30S,36S,38Z)-20-cyclopentyl-8-[2-[3,5-difluoro-4-(trifluoromethyl)phenyl]ethyl]-27-ethyl-N,N,4,19,22,26,32,35-octamethyl-30-[(1S)-1-methylpropyl]-3,6,9,15,18,21,25,28,31,34,42-undecaoxo-2-[[4-(trifluoromethyl)phenyl]methyl]spiro[1,4,7,10,16,19,22,26,29,32,35-undecazatricyclo[34.5.1.0^10,14]dotetracont-38-ene-17,1′-cyclobutane]-23-carboxamide] | 0.094 | 43.9 |  | A (a compound having 10 or more and less than 20 is denoted as A) | A (a compound having 10 or more and less than 20 is denoted as A) |  | 
CCO[C@H](C)[C@@H]1NC(=O)[C@H](CC(C)C)N(C)C(=O)C[C@@H](C(=O)N(C)C)N(C)C(=O)[C@H](C2CCCC2)N(C)C(=O)C2(CC(C)(C)C2)NC(=O)[C@@H]2C[C@H](C)CN2C(=O)[C@H](CCc2ccc(C(F)(F)F)c(OC)c2)NC(=O)CN(C)C(=O)[C@H](Cc2ccc(C)cc2)N2CC/C=C\C[C@@H](C2=O)N(C)C(=O)[C@@H]2CCCN2C1=O [PP2418] | 0.97 | 132 |  | A (a compound having 10 or more and less than 20 is denoted as A) | B (a compound having 3 or more and less than 10 is denoted as B) |  | 
CCO[C@@H]1C[C@H]2C(=O)NC3(CCC3)C(=O)N(C)[C@@H](C3CCCC3)C(=O)N(C)[C@H](C(=O)N(C)C)CC(=O)N(C)[C@@H](COC)C(=O)N[C@@H]([C@@H](C)CC)C(=O)N(C)CC(=O)N(C)[C@H]3CCCCCN(C3=O)[C@@H](Cc3ccc(F)cc3)C(=O)N(C)CC(=O)N[C@@H](CCc3cc(F)c(C(F)(F)F)c(F)c3)C(=O)N2C1 [PP1193] | 0.07 | 16.3 |  | B (a compound having 3 or more and less than 10 is denoted as B) | B (a compound having 3 or more and less than 10 is denoted as B) |  | 
CCO[C@@H]1C[C@H]2C(=O)NC3(CCC3)C(=O)N(C)[C@@H](C3CCCC3)C(=O)N(C)[C@H](C(=O)N3CCCC3)CC(=O)N(C)[C@@H](CC3CCCC3)C(=O)N[C@@H]([C@@H](C)CC)C(=O)N(C)CC(=O)N(C)[C@H]3C/C=C\CCN(C3=O)[C@@H](Cc3ccc(C)cc3)C(=O)N(C)CC(=O)N[C@@H](CCc3cc(F)c(C(F)(F)F)c(F)c3)C(=O)N2C1 [PP1412] |  | 23 | 0.19 |  |  | A (a compound having 10 or more and less than 20 is denoted as A) | A (a compound having 10 or more and less than 20 is denoted as A)
CCC[C@H]1C(=O)N[C@@H](CC(C)C)C(=O)N(C2CC2)CC(=O)N(C)[C@H]2C/C=C\CCN(C2=O)[C@@H](Cc2ccc(C)cc2)C(=O)N(C)CC(=O)N[C@@H](CCc2cc(F)c(C(F)(F)F)c(F)c2)C(=O)N2C[C@H](OCC)C[C@H]2C(=O)NC2(CC(C)(C)C2)C(=O)N(C)[C@@H](C2CCCC2)C(=O)N(C)[C@H](C(=O)N(C)C)CC(=O)N1C [PP2508] | 3.4 | 124 |  | A (a compound having 10 or more and less than 20 is denoted as A) | B (a compound having 3 or more and less than 10 is denoted as B) |  | 

Second part, led by results:

Kd [2] [nM] | IC50 [3] [nM] | Kd ([2]; 1:1 binding model) [nM] | Compound | NRAS/KRAS (ratio of KD value for NRAS to KD value for KRAS) [1] | HRAS/KRAS (ratio of KD value for HRAS to KD value for KRAS) [4] | NRAS/KRAS (ratio of KD value for NRAS to KD value for KRAS) ([1]; KD ratio class) | HRAS/KRAS (ratio of KD value for HRAS to KD value for KRAS) ([4]; KD ratio class)
 | 33.4 | 0.42 | CCO[C@@H]1C[C@H]2C(=O)NC3(CCC3)C(=O)N(C)[C@@H](C(CC)CC)C(=O)N(C)[C@H](C(=O)N(C)C)CC(=O)N(C)[C@@H](CC)C(=O)N[C@@H]([C@@H](C)CC)C(=O)N(C)CC(=O)N(C)[C@H]3C/C=C\CCN(C3=O)[C@@H](Cc3ccc(C(F)(F)F)cc3)C(=O)N(C)CC(=O)N[C@@H](CCc3ccc(Cl)c(Cl)c3)C(=O)N2C1 [PP1215] |  |  | AA (a compound having 20 or more is denoted as AA) | A (a compound having 10 or more and less than 20 is denoted as A)
 | 5.1 | 0.049 | CCCOC[C@H]1C(=O)N[C@@H]([C@@H](C)CC)C(=O)N(C)CC(=O)N(C)[C@H]2C/C=C\CCN(C2=O)[C@@H](Cc2ccc(C)cc2)C(=O)N(C)CC(=O)N[C@@H](CCc2cc(F)c(C(F)(F)F)c(F)c2)C(=O)N2C[C@H](OCC)C[C@H]2C(=O)NC2(CC(C)(C)C2)C(=O)N(C)[C@@H](C2CCCC2)C(=O)N(C)[C@H](C(=O)N(C)C)CC(=O)N1C [PP1400, (2S,8S,12R,14S,20S,23S,27S,30S,36S,38Z)-20-cyclopentyl-8-[2-[3,5-difluoro-4-(trifluoromethyl)phenyl]ethyl]-12-ethoxy-N,N,3′,3′,4,19,22,26,32,35-decamethyl-30-[(1S)-1-methylpropyl]-3,6,9,15,18,21,25,28,31,34,42-undecaoxo-27-(propoxymethyl)-2-(p-tolylmethyl)spiro[1,4,7,10,16,19,22,26,29,32,35-undecazatricyclo[34.5.1.0^10,14]dotetracont-38-ene-17,1′-cyclobutane]-23-carboxamide] |  |  | A (a compound having 10 or more and less than 20 is denoted as A) | B (a compound having 3 or more and less than 10 is denoted as B)
 | 475 | 1 | CCO[C@@H]1C[C@H]2C(=O)NC3(CCC3)C(=O)N(C)[C@@H](C3CCCC3)C(=O)N(C)[C@H](C(=O)N(C)C)CC(=O)N(C)[C@@H](CC3CC3)C(=O)N[C@@H]([C@@H](C)CC)C(=O)N(C)CC(=O)N(C)[C@H]3C/C=C\CCN(C3=O)[C@@H](Cc3ccc(F)cc3)C(=O)N(C)CC(=O)N[C@@H](CCc3ccc4sccc4c3)C(=O)N2C1 [PP1426] |  |  | A (a compound having 10 or more and less than 20 is denoted as A) | B (a compound having 3 or more and less than 10 is denoted as B)
 | 19.8 | 0.39 | CCC[C@H]1C(=O)N[C@@H]([C@@H](C)CC)C(=O)N(C)CC(=O)N(C)[C@H]2C/C=C\CCN(C2=O)[C@@H](Cc2ccc(C(F)(F)F)cc2)C(=O)N(C)CC(=O)N[C@@H](CCc2ccc(Cl)c(Cl)c2)C(=O)N2C[C@H](OCC)C[C@H]2C(=O)NC2(CCC2)C(=O)N(C)[C@@H](C(CC)CC)C(=O)N(C)[C@H](C(=O)N(C)C)CC(=O)N1C [PP1216] |  |  | AA (a compound having 20 or more is denoted as AA) | A (a compound having 10 or more and less than 20 is denoted as A)
 | 93.4 | 0.34 | CCO[C@@H]1C[C@H]2C(=O)NC3(CCC3)C(=O)N(C)[C@@H](C(CC)CC)C(=O)N(C)[C@H](C(=O)N(C)C)CC(=O)N(C)[C@@H](C)C(=O)N[C@@H]([C@@H](C)CC)C(=O)N(C)CC(=O)N(C)[C@H]3C/C=C\CCN(C3=O)[C@@H](Cc3ccc(C(F)(F)F)cc3)C(=O)N(C)CC(=O)N[C@@H](CCc3ccc(Cl)c(Cl)c3)C(=O)N2C1 [PP1214] |  |  | AA (a compound having 20 or more is denoted as AA) | A (a compound having 10 or more and less than 20 is denoted as A)
